# Legend:
# sugar beet = assay: Test B pre/postemergence sugar beet; format: in vivo, Beta vulgaris; settings: for Plant response rating, Sugarbeets: scale of 0 to 10 where 0 is no effect and 10 is complete control
# How it was run: (§1)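 Test chemicals in a non-phytotoxic solvent mixture with surfactant were sprayed preemergence onto planted seeds and postemergence onto plants 2 to 18 cm tall (1- to 4-leaf stage). After twelve to sixteen days in a greenhouse, injury was visually rated against untreated controls from 0 (no effect) to 10 (complete control).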
# wheat = assay: Test B pre/postemergence wheat; format: in vivo, Triticum aestivum; settings: for Plant response rating, Wheat: scale of 0 to 10 where 0 is no effect and 10 is complete control
# How it was run: as §1
# soybean = assay: Test B pre/postemergence soybean; format: in vivo, Glycine max; settings: for Plant response rating, Soybean: scale of 0 to 10 where 0 is no effect and 10 is complete control
# How it was run: as §1
# giant foxtail = assay: Test B pre/postemergence giant foxtail; format: in vivo, Setaria faberii
# How it was run: as §1
# surinam grass = assay: Test B pre/postemergence surinam grass; format: in vivo, Brachiaria decumbens
# How it was run: as §1
# bamyardgrass = assay: Test B flood test barnyardgrass; format: in vivo, Echinochloa crus-galli
# How it was run: (§2)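 Read-out is a visual response score from 0 (no effect) to 10 (complete control), assigned by comparison with untreated controls. Treatment was applied at the 2-leaf stage, and plants stayed in the greenhouse for twelve to sixteen days before scoring.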
# pigweed = assay: Test B pre/postemergence pigweed; format: in vivo, Amaranthus retroflexus; settings: for Plant response rating, Redroot pigweed: scale of 0 to 10 where 0 is no effect and 10 is complete control
# How it was run: as §1
# corn = assay: Test B pre/postemergence corn; format: in vivo, Zea mays
# How it was run: as §1
# velvetleaf = assay: Test B pre/postemergence velvetleaf; format: in vivo, Abutilon theophrasti; settings: for Plant response rating, Velvetleaf: scale of 0 to 10 where 0 is no effect and 10 is complete control
# How it was run: as §1
# wild oat = assay: Test B pre/postemergence wild oat; format: in vivo, Avena fatua; settings: for Plant response rating, Wild oats: scale of 0 to 10 where 0 is no effect and 10 is complete control
# How it was run: as §1
# rape = assay: Test B pre/postemergence rape; format: in vivo, Brassica napus; settings: for Plant response rating, Rape: scale of 0 to 10 where 0 is no effect and 10 is complete control
# How it was run: as §1
# purple nutsedge = assay: Test B pre/postemergence purple nutsedge; format: in vivo, Cyperus rotundus; settings: for Plant response rating, Nutsedge: scale of 0 to 10 where 0 is no effect and 10 is complete control
# How it was run: as §1
# duck salad = assay: Test B flood test duck salad; format: in vivo, Heteranthera limosa
# How it was run: as §2
# morningglory = assay: Test B pre/postemergence morningglory; format: in vivo, Ipomoea hederacea; settings: for Plant response rating, Morningglory: scale of 0 to 10 where 0 is no effect and 10 is complete control
# How it was run: as §1
# blackgrass = assay: Test B pre/postemergence blackgrass; format: in vivo, Alopecurus myosuroides
# How it was run: as §1
# crabgrass = assay: Test B pre/postemergence crabgrass; format: in vivo, Digitaria sanguinalis
# How it was run: as §1
# rice = assay: Test B flood test rice; format: in vivo, Oryza sativa
# How it was run: as §2
# smallflower flatsedge = assay: Test B flood test smallflower flatsedge; format: in vivo, Cyperus difformis
# How it was run: as §2
# cocklebur = assay: Test B pre/postemergence cocklebur; format: in vivo, Xanthium strumarium
# How it was run: as §1
# [1] = Postemergence, Rate 250 g/ha, scale 0 to 10
# [2] = Preemergence, Rate 250 g/ha, scale 0 to 10, 0 is no effect, 10 is complete control
# [3] = Preemergence, Rate 500 g/ha, scale 0 to 10, 0 is no effect, 10 is complete control
# [4] = Rate 62 g/ha, Postemergence, scale 0 to 10 (0 no effect, 10 complete control)
# [5] = Rate 125 g/ha, Postemergence, scale 0 to 10, 0 is no effect, 10 is complete control
# [6] = Postemergence, Rate 500 g/ha, scale of 0 to 10 where 0 is no effect and 10 is complete control
# [7] = Preemergence, Rate 62 g/ha, scale of 0 to 10 where 0 is no effect and 10 is complete control
# [8] = Preemergence, Rate 125 g/ha, scale of 0 to 10 where 0 is no effect and 10 is complete control
# [9] = Rate 62 g/ha, flood test species, Pre-emergence, visual evaluation after twelve to sixteen days
# [10] = Rate 125 g/ha, under heading Pre-emergence, flood test species, visual evaluation after twelve to sixteen days
# [11] = Rate 250 g/ha, Pre-emergence (flood test species), scale 0 to 10, 0 is no effect, 10 is complete control
# [12] = Rate 500 g/ha, Pre-emergence, flood test species, scale 0 to 10 (0 no effect, 10 complete control)
structure (smiles),measurement,setting,value
CCOC(=O)CC(C(=O)OCC)n1c(=O)on(C(=O)N(c2ccc(F)cc2F)C(C)C)c1=O (centres unmarked) [Compound 465],Sugarbeets plant response rating,sugar beet; [1],0
same,"Plant response rating, Sugarbeets","sugar beet; Preemergence, Rate 62 g/ha",0
same,"Plant response rating, Sugarbeets","sugar beet; Preemergence, Rate 125 g/ha",2
same,Sugarbeets plant response rating,sugar beet; [2],3
same,Sugarbeets plant response rating,sugar beet; [3],5
same,Sugarbeets plant response rating,sugar beet; [4],0
same,Sugarbeets plant response rating,sugar beet; [5],0
same,Wheat plant response rating,wheat; [1],0
same,"Plant response rating, Wheat","wheat; Preemergence, Rate 62 g/ha",0
same,"Plant response rating, Wheat","wheat; Preemergence, Rate 125 g/ha",0
same,Wheat plant response rating,wheat; [2],0
same,Wheat plant response rating,wheat; [3],0
same,Wheat plant response rating,wheat; [4],0
same,Wheat plant response rating,wheat; [5],0
same,Soybean plant response rating,soybean; [1],1
same,"Plant response rating, Soybean","soybean; Preemergence, Rate 62 g/ha",0
same,"Plant response rating, Soybean","soybean; Preemergence, Rate 125 g/ha",0
same,Soybean plant response rating,soybean; [2],7
same,Soybean plant response rating,soybean; [4],1
same,Soybean plant response rating,soybean; [5],1
same,Giant foxtail plant response rating,giant foxtail; [1],5
same,Giant foxtail plant response rating,giant foxtail; [6],9
same,"Plant response rating, Giant foxtail",giant foxtail; [7],7
same,"Plant response rating, Giant foxtail",giant foxtail; [8],10
same,Giant foxtail plant response rating,giant foxtail; [2],10
same,Giant foxtail plant response rating,giant foxtail; [3],10
same,Giant foxtail plant response rating,giant foxtail; [4],2
same,Giant foxtail plant response rating,giant foxtail; [5],5
same,B. signalgrass plant response rating,"surinam grass; Postemergence, Rate 250 g/ha, scale 0 to 10, 0 no effect, 10 complete control",0
same,B. signalgrass plant response rating,surinam grass; [6],0
same,"Plant response rating, B. signalgrass",surinam grass; [7],0
same,"Plant response rating, B. signalgrass",surinam grass; [8],2
same,B. signalgrass plant response rating,surinam grass; [2],3
same,B. signalgrass plant response rating,surinam grass; [3],5
same,B. signalgrass plant response rating,surinam grass; [4],0
same,B. signalgrass plant response rating,surinam grass; [5],0
same,"Plant response rating, Barnyardgrass (0 to 10 scale, 0 is no effect, 10 is complete control)",bamyardgrass; [9],0
same,"Barnyardgrass plant response rating (0 to 10 scale, 0 is no effect, 10 is complete control)",bamyardgrass; [10],0
same,Barnyardgrass plant response rating,bamyardgrass; [11],0
same,Barnyardgrass plant response rating,bamyardgrass; [12],0
same,Redroot pigweed plant response rating,pigweed; [1],0
same,"Plant response rating, Redroot pigweed","pigweed; Preemergence, Rate 62 g/ha",3
same,"Plant response rating, Redroot pigweed","pigweed; Preemergence, Rate 125 g/ha",9
same,Redroot pigweed plant response rating,pigweed; [2],9
same,Redroot pigweed plant response rating,pigweed; [3],10
same,Redroot pigweed plant response rating,pigweed; [4],0
same,Redroot pigweed plant response rating,pigweed; [5],0
same,Corn plant response rating,corn; [1],0
same,Corn plant response rating,corn; [6],2
same,"Plant response rating, Corn",corn; [7],0
same,"Plant response rating, Corn",corn; [8],0
same,Corn plant response rating,corn; [2],0
same,Corn plant response rating,corn; [3],2
same,Corn plant response rating,corn; [4],0
same,Corn plant response rating,corn; [5],0
same,Velvetleaf plant response rating,velvetleaf; [1],3
same,"Plant response rating, Velvetleaf","velvetleaf; Preemergence, Rate 62 g/ha",0
same,"Plant response rating, Velvetleaf","velvetleaf; Preemergence, Rate 125 g/ha",3
same,Velvetleaf plant response rating,velvetleaf; [2],7
same,Velvetleaf plant response rating,velvetleaf; [3],8
same,Velvetleaf plant response rating,velvetleaf; [4],0
same,Velvetleaf plant response rating,velvetleaf; [5],0
same,Wild oats plant response rating,wild oat; [1],0
same,"Plant response rating, Wild oats","wild oat; Preemergence, Rate 62 g/ha",0
same,"Plant response rating, Wild oats","wild oat; Preemergence, Rate 125 g/ha",0
same,Wild oats plant response rating,wild oat; [2],2
same,Wild oats plant response rating,wild oat; [3],3
same,Wild oats plant response rating,wild oat; [4],0
same,Wild oats plant response rating,wild oat; [5],0
same,Rape plant response rating,rape; [1],0
same,"Plant response rating, Rape","rape; Preemergence, Rate 62 g/ha",0
same,"Plant response rating, Rape","rape; Preemergence, Rate 125 g/ha",2
same,Rape plant response rating,rape; [2],2
same,Rape plant response rating,rape; [3],5
same,Rape plant response rating,rape; [4],0
same,Rape plant response rating,rape; [5],0
same,Nutsedge plant response rating,purple nutsedge; [1],0
same,"Plant response rating, Nutsedge","purple nutsedge; Preemergence, Rate 62 g/ha",0
same,"Plant response rating, Nutsedge","purple nutsedge; Preemergence, Rate 125 g/ha",0
same,Nutsedge plant response rating,purple nutsedge; [2],0
same,Nutsedge plant response rating,purple nutsedge; [3],0
same,Nutsedge plant response rating,purple nutsedge; [4],0
same,Nutsedge plant response rating,purple nutsedge; [5],0
same,"Plant response rating, Ducksalad (0 to 10 scale, 0 is no effect, 10 is complete control)",duck salad; [9],0
same,"Ducksalad plant response rating (0 to 10 scale, 0 is no effect, 10 is complete control)",duck salad; [10],0
same,Ducksalad plant response rating,duck salad; [11],0
same,Ducksalad plant response rating,duck salad; [12],0
same,Morningglory plant response rating,morningglory; [1],2
same,"Plant response rating, Morningglory","morningglory; Preemergence, Rate 62 g/ha",0
same,"Plant response rating, Morningglory","morningglory; Preemergence, Rate 125 g/ha",0
same,Morningglory plant response rating,morningglory; [2],0
same,Morningglory plant response rating,morningglory; [3],0
same,Morningglory plant response rating,morningglory; [4],0
same,Morningglory plant response rating,morningglory; [5],1
same,Blackgrass plant response rating,blackgrass; [1],6
same,Blackgrass plant response rating,blackgrass; [6],8
same,"Plant response rating, Blackgrass",blackgrass; [7],2
same,"Plant response rating, Blackgrass",blackgrass; [8],3
same,Blackgrass plant response rating,blackgrass; [2],6
same,Blackgrass plant response rating,blackgrass; [3],10
same,Blackgrass plant response rating,blackgrass; [4],0
same,Blackgrass plant response rating,blackgrass; [5],2
same,Crabgrass plant response rating,crabgrass; [1],5
same,Crabgrass plant response rating,crabgrass; [6],8
same,"Plant response rating, Crabgrass",crabgrass; [7],2
same,Crabgrass plant response rating,crabgrass; [2],4
same,Crabgrass plant response rating,crabgrass; [3],10
same,Crabgrass plant response rating,crabgrass; [4],1
same,Crabgrass plant response rating,crabgrass; [5],1
same,"Plant response rating, Rice (0 to 10 scale, 0 is no effect, 10 is complete control)",rice; [9],0
same,"Rice plant response rating (0 to 10 scale, 0 is no effect, 10 is complete control)",rice; [10],0
same,Rice plant response rating,rice; [11],0
same,Rice plant response rating,rice; [12],0
same,"Plant response rating, S. Flatsedge (0 to 10 scale, 0 is no effect, 10 is complete control)",smallflower flatsedge; [9],0
same,"S. Flatsedge plant response rating (0 to 10 scale, 0 is no effect, 10 is complete control)",smallflower flatsedge; [10],0
same,S. Flatsedge plant response rating,smallflower flatsedge; [11],0
same,S. Flatsedge plant response rating,smallflower flatsedge; [12],0
same,Cocklebur plant response rating,cocklebur; [1],0
same,Cocklebur plant response rating,cocklebur; [6],0
same,"Plant response rating, Cocklebur",cocklebur; [7],0
same,"Plant response rating, Cocklebur",cocklebur; [8],0
same,Cocklebur plant response rating,cocklebur; [2],0
same,Cocklebur plant response rating,cocklebur; [3],0
same,Cocklebur plant response rating,cocklebur; [4],0
same,Cocklebur plant response rating,cocklebur; [5],0
